Test results reported in patent publication US9675590B2, “Methods and pharmaceutical compositions for the treatment of myelodysplastic syndromes” (INSERM (INSTITUT NATIONAL DE LA SANTÉ ET DE LA RECHERCHE …, priority 2014, dated 2017).
Where two headings read alike, the source gives them in different places.

Assays:
HSP70 [1] = experiment: HSP70 nuclear retention in CD36+ D6 cells under EPO starvation; type: cell-based, human; conditions: CD36+ D6 from cord blood, after 20 h of treatment
Experimental: (§1) Umbilical cord blood units from normal full-term deliveries were obtained, after informed mother's consent, from the Obstetrics Unit of Hôpital Necker-Enfants Malades. CD36+ erythroid progenitors, generated from 7 days IL-6+IL3+SCF-cultured CD34 progenitors isolated from cord blood (Miltenyi CD34 Progenitor Cell Isolation Kit), were cultured in the presence of IL3+SCF+Epo in IMDM (Gibco cell culture) supplemented with 15% BIT 9500 (Stem Cell Technologies).
(§2) 5.10^4 cells were spin on slides, acetone fixated, hydrated with cold 1×PBS 1% BSA for 30 minutes, treated with formaldehyde for 15 min (Sigma), then with methanol (Prolabo) for 10 minutes at room temperature. Cells were then permeabilized with 1×PBS 0.2% triton X100 (Sigma) for 10 min at 4° C., washed and incubated in 10% BSA for 30 minutes. They were then sequentially incubated with antibodies diluted in 1×PBS 1% BSA 0.1% tween (Sigma). Nuclei were stained with DAPI and slides were examined with a confocal laser microscope (LSM 700 Carl Zeiss).

CD36+ D6 = experiment: Cell death of CD36+ D6 cells during EPO starvation; type: cell-based, human; conditions: EPO starvation during 20 h
Experimental: as §1

CD36+ D8 cells = experiment: Erythroid maturation of CD36+ D8 cells (MGG observations); type: cell-based, human; conditions: 100 nM, 333 nM and 1000 nM, after 72 h of treatment, compared to non treated cells
HSP70 [2] = experiment: HSP70 nuclear localization in myelodysplastic syndrome CD36+ D8 cells; type: cell-based, human; conditions: 100 nM, after 72 h of treatment, compared to non treated cells
Experimental: as §2

[3] = tested on: CD36+ erythroid progenitors from cord blood; experiment: Toxicity of KPT on CD36+ erythroid progenitors with normal EPO; type: cell-based, human; conditions: cord blood CD36+ at day 6 (D6) of culture; 33 nM, 100 nM, 333 nM and 1000 nM; normal concentrations of EPO; until 20 h of treatment
Experimental: as §1

HSP70 [4] = conditions: erythroid precursor cells; cited from earlier work

| Compound | HSP70 nuclear retention (HSP70 [1]) | decrease of cell death compared to the absence of KPT treatment (CD36+ D6; 100 nM) | decrease of cell death compared to the absence of KPT treatment (CD36+ D6; 333 nM) | maturation index (mature*100/polychromatic) (CD36+ D8 cells) | number of mature cells (CD36+ D8 cells) | HSP70 nuclear localization (HSP70 [2]) | toxicity for CD36+ erythroid progenitors [3] | HSP70 nuclear retention (HSP70 [4]) |
| --- | --- | --- | --- | --- | --- | --- | --- | --- |
| FC(F)(F)c1cc(-c2ncn(/C=C\c3nnco3)n2)cc(C(F)(F)F)c1 [KPT] | induces HSP70 nuclear retention | 49% | 39% | increases | increases the number of mature cells | induces HSP70 nuclear localization | not toxic |  |
| CCC(=C/[C@H](C)C/C=C/C(C)=C/[C@@H](C)C(=O)[C@@H](C)[C@H](O)[C@@H](C)C/C(C)=C/C(=O)O)/C=C/[C@@H]1OC(=O)C=C[C@@H]1C [Leptomycin B] |  |  |  |  |  |  |  | induces HSP70 nuclear retention |
